Measurements reported in article PMC4912613, “A broad analysis of resistance development in the malaria parasite” (Nature Communications, 2016).
Where two headings read alike, the source gives them in different places.

Tests used:
[1] = test system: GNF449-R2 (PfATP4 I203L and P990R, parent Dd2); experiment: Cross-resistance EC50 assay, GNF449-R2; type: cell-based; settings: Plasmodium falciparum, SYBR green 72 hour assay, asynchronized parasites, 96-well or 1536-well format
Excerpt: (§1) To evaluate potential overlapping activity against known antimalarial drug targets, we performed dose-response studies with each compound against our assembled set of drug-resistant lines and their corresponding parents, in an asexual blood stage proliferation assay (Table 1). Comparisons were made to the drug-sensitive strain 3D7 when a parent was unavailable (TM90C2A, W2 and Dd2). As laboratories conducted EC50 assays with different strains and protocols, all comparisons were made between assays from the same laboratory and under the same assay conditions. Compounds displaying >5-fold EC50 shifts relative to the parent or sensitive strain were flagged as having potentially non-novel targets. Average fold shifts per strain ranged from 0.82 to 2.34, with a median of 1.23 indicating there was not common resistance to any one resistant clone. No resistance patterns were observed when classifying the compounds based on chemical structure, but this was not surprising given the diversity of compounds chosen. On the other hand, given that these confirmed compounds were derived from larger unconfirmed hit lists to which some filtration criteria may have been applied (for example, elimination of obvious dihydrofolate reductase inhibitors[32]), some[10][11][12][13] pre-existing bias may exist in the set. […]
(§2) Alternatively, a SYBR Green-based proliferation approach was used for the 72-h assay, as previously described. Briefly, a culture of either synchronized or asynchronous parasitized RBCs (0.3% parasitemia and 4% haematocrit) in screening medium (identical to supplemented medium above except no serum was added) was exposed to serial drug dilutions. Plates were incubated at 37 °C and gassed with 93% N2, 4% CO2 and 3% O2 for 72 h. Following incubation, 10 × SYBR Green I (Invitrogen; supplied in 10,000 × concentration) in lysis buffer ([…], 5 mM EDTA, 0.16% Saponin wt per vol and 1.6% Triton X vol per vol) was added to the wells and the plates were incubated overnight at room temperature before plate reading. EC50 assays were repeated three times, taking the average EC50 value from each assay set, and removing any outliers using a single iteration of Grubbs' test, eliminating values with z-scores above the critical z-value (α=0.05). The raw EC50 values for synchronized parasites assayed in a 384-well format are listed in Supplementary Data 4. The raw EC50 values for asynchronous parasites assayed in a 96 or 1536-well format are listed in Supplementary Data 5.
(§3) EC50 values for each strain were compared with those of the corresponding parent strain to determine fold-shift changes and identify resistance. To minimize the cause variance between assays, all comparisons were conducted between strains assayed under identical conditions. A one-way ANOVA followed by a Dunnet's post-test was conducted in GraphPad Prism to identify significant changes between the parent and resistant strain.

Dd2 = experiment: Cross-resistance EC50 assay, Dd2 parent; type: cell-based, Plasmodium falciparum; settings: Plasmodium falciparum
Excerpt: Multidrug resistance alleles, including mutations in P. falciparum chloroquine resistance transporter (pfcrt) and P. falciparum multi-drug resistance transporter 1 (pfmdr1) are very common in field isolates. Therefore, we sought to assess the degree to which pre-existing resistance alleles would contribute to a loss of potency for this diverse collection of small molecule compounds. Fifteen clones derived from three main parent lines were chosen to maximize diversity in mutated pathways and genetic backgrounds, thus representing the variety of resistance seen in the field: 3D7 (ref. [23]), W2 (ref. [24]) or Dd2 (ref. [25]). The 3D7 line originates from the clone of a Netherlands clinical isolate strain[23][26] and is generally considered to be drug sensitive, though it does convey resistance to sulfadoxine. Conversely, W2 (ref. [24], [27]) and Dd2 (ref. [25]) are multi-drug-resistant lines originating from the Indochina III/CDC isolate, which contain point mutations in pfcrt as well as amplifications in pfmdr1 and GTP cyclohydrolase.
as §1, §2, §3

P. falciparum strain 3D7 = experiment: Asexual blood stage 3H-hypoxanthine incorporation assay, 3D7; type: cell-based, Plasmodium falciparum
Protocol: The 48-h assay was carried out in a 96-well format following standard methods using the ^3H-hypoxanthine incorporation assay. The raw EC50 values corresponding to this assay can be found in Supplementary Data 3. Briefly, this assay relies on the parasite incorporation of labelled hypoxanthine that is proportional to P. falciparum growth. A culture of parasitized RBCs (0.5% parasitemia with a percentage of ring stage higher than 70% of total parasitemia, 2.0% haematocrit) in RPMI-1640, […] and 5 μM hypoxanthine was exposed to drug serial dilutions. Plates were incubated for 24 h at 37 °C, 5% CO2, 5% O2 and 90% N2. After 24 h of incubation, ^3H-hypoxanthine was added and plates were incubated for an additional 24-h period. After that, parasites were harvested on a glass fibre filter using a TOMTEC Cell Harvester 96. Filters were dried and melt-on scintillator sheets were used to determine the incorporation of ^3H-hypoxanthine. Radioactivity was measured using a microbeta counter. Data were normalized using the incorporation of the positive (parasitized RBCs without drug) and negative (same culture with artesunate at 2 μM) controls. All assays were conducted in triplicate using three independently grown cultures, and EC50 values were determined using the XLfit add-in module for Excel (version 2.3.1) from Grafit (version 5.3.1.3), where parameter h is the assay hill slope, x is the compound concentration and y is the inhibition of growth effect. The XLfit equation is: […]

[2] = test system: GNF156R (PfCARL L830V, S1076I and M81I, parent Dd2); experiment: Cross-resistance EC50 assay, GNF156R; type: cell-based; settings: Plasmodium falciparum, SYBR green 72 hour assay, asynchronized parasites, 96-well or 1536-well format
Excerpt: as §1, §2, §3

HepG2 = experiment: Hepatocyte toxicity; type: cell-based, human; settings: for Hepatocyte Toxicity: HepG2; for EC50 fold shift compared to asexual stage: Hepatocyte Toxicity: hepatocyte toxicity / 3D7 EC50; for Liver Stage / Hepatocyte Toxicity: toxicity fold shift for the liver stage (hepatocyte toxicity vs liver stage EC50)
Excerpt: As drugs that eliminate multiple stages of the parasite lifecycle will be critical components in global efforts to eliminate malaria, we were interested in knowing whether the compounds in our study had additional activities against either the liver and/or transmission stages of the parasite lifecycle. To determine this, we first evaluated the compounds in additional phenotypic assays. The first assay was a P. berghei hepatocyte invasion and development assay, which predicts causal prophylactic activity. Hepatocyte toxicity was additionally tested to identify false-positive activity in the liver stage due to host-cell toxicity. Assays were executed in duplicate using a 12-point EC50 curve at starting concentrations of 5 μM or 50 μM (Supplementary Table 1).
Liver-stage activity was determined by pretreating hepatic human cells (HepG2) for 2 h with compound in 1,536-well plates infected with freshly dissected P. berghei sporozoites. After 48 h of incubation, the viability of P. berghei exoerythrocytic forms was measured by luminescence reaction light output using BrightGlo (Promega). Varying levels of compound concentration were used (5 μM or 50 μM) due to the stock concentration supplied.

[3] = test system: ProRS (prolyl t-RNA synthetase L482H, parent Dd2); experiment: Cross-resistance EC50 assay, ProRS; type: cell-based; settings: Plasmodium falciparum; SYBR green 72 hour assay; synchronized parasites; 384-well format; strain ProRS (Dd2 parent)
Excerpt: as §1, §2, §3

[4] = test system: CYTbQi (cytb G33A, parent Dd2); experiment: Cross-resistance EC50 assay, CYTbQi; type: cell-based; settings: Plasmodium falciparum; SYBR green 72 hour assay; synchronized parasites; 384-well format; strain CYTbQi (Dd2 parent)
Excerpt: as §1, §2, §3

[5] = DD2, 72 h, read-out: Dd2 (PARENT) Average EC50
[6] = DD2, 72 h, read-out: Dd2 (PARENT) EC50 (µM) Average EC50
[7] = Plasmodium falciparum, 3D7, asexual stage, P. falciparum 3D7, read-out: 3D7 EC50

Row | SMILES | EC50 [1] | EC50 (Dd2; [5]) | EC50 (Dd2; [6]) | EC50 (Dd2; DD2, read-out: EC50, Dd2 parent) | EC50 (P. falciparum strain 3D7; [7]) | EC50 [2] | Hepatocyte Toxicity (HepG2) | EC50 fold shift compared to asexual stage: Hepatocyte Toxicity (HepG2) | Liver Stage / Hepatocyte Toxicity (HepG2) | EC50 [3] | EC50 [4] | EC50 (P. falciparum strain 3D7; asexual stage, P. falciparum 3D7, read-out: 3D7 EC50) | EC50 (P. falciparum strain 3D7; Plasmodium falciparum, 3D7, read-out: 3D7 EC50)
1 | Cc1c(C)n(Cc2ccc(F)cc2)c2ccc(C(=O)NCc3ccco3)cc12 [MMV008149] | 1.36 µM | 0.09 µM | 1.63 µM | 0.485 µM | 770 nM | 0.798 µM | > 5 µM | > 6.5 | > 5.6 | 67 nM | 87 nM |  | 
2 | OC(CNC1CCCCC1)Cn1c2ccccc2c2ccccc21 (centres unmarked) [MMV009063] | 0.457 µM | 0.188 µM | 0.364 µM |  | 790 nM | 0.095 µM | > 5 µM | > 6.3 |  | 144 nM | 257 nM |  | 
3 | CCN(CC)S(=O)(=O)c1ccc(-c2csc(Nc3ccc(C)c(C)c3)n2)cc1 [MMV009108] | 1.01 µM | 0.368 µM | 0.929 µM |  | 930 nM | 1.5 µM | > 5 µM | > 5.3 | > 1 | 373 nM | 416 nM |  | 
4 | COC(=O)c1ccc(C2C3=C(O)CC(c4ccc(F)cc4)CC3=Nc3ccccc3N2C(=O)c2ccccc2)cc1 (centres unmarked) [MMV011438] | 0.552 µM | 0.152 µM | 0.655 µM |  | 431 nM | 0.842 µM | > 50 µM | > 116 | > 80 | 220 nM | 235 nM |  | 
5 | Nc1ccc(-c2nc3cc(Oc4ccc(Oc5ccc6[nH]c(-c7ccc(N)cc7)nc6c5)cc4)ccc3[nH]2)cc1 [MMV011895] | 0.644 µM | 0.259 µM | 0.431 µM |  | 160 nM | 0.126 µM | > 50 µM | > 300 |  | 232 nM | 267 nM |  | 
6 | COCCNCC(O)Cn1c2ccc(Cl)cc2c2cc(Cl)ccc21 (centres unmarked) [MMV019017] | 0.636 µM | 0.477 µM | 0.998 µM |  | 480 nM | 0.336 µM | > 5 µM | > 10 |  | 340 nM | 549 nM |  | 
7 | COc1ccccc1CNC(=O)CCn1c(=O)[nH]c2ccsc2c1=O [MMV019066] | 0.008 µM | 0.054 µM | 0.00951 µM |  | 1670 nM | 0.008 µM | > 5 µM | > 3 | > 15 | 42 nM | 74 nM | 1670 nM | 
8 | Cl.c1ccc2c(NCCCCCCNc3c4c(nc5ccccc35)CCCC4)c3c(nc2c1)CCCC3 [MMV019555] | 0.262 µM | 0.236 µM | 0.241 µM |  |  | 0.22 µM | 4.811 µM |  | 15.06 | 230 nM | 227 nM |  | 87.3 nM
9 | COc1ccc(N2CCN(C(CNC(=O)C3CCCCC3)c3ccc4c(c3)OCO4)CC2)cc1 (centres unmarked) [MMV019662] | 0.452 µM | 0.357 µM | 0.242 µM |  | 340 nM | 0.405 µM | > 50 µM | > 147 | > 2.65 | 481 nM | 448 nM |  | 
10 | COc1ccc(-c2nc(NC(=O)Cc3ccc4c(c3)OCCO4)sc2C)cc1 [MMV019719] | 0.405 µM | 0.26 µM | 0.277 µM |  | 164 nM | 0.347 µM | 20.33 µM | 123.96 | 1.94 | 244 nM | 245 nM |  | 
11 | Cc1ccc(Oc2ncccc2C(=O)Cc2cccc3cccnc23)c(C)c1 [MMV020746] | 2.63 µM | 0.241 µM | 1.86 µM |  | 76 nM | 3.38 µM | 31.56 µM | 415.26 | 2.61 | 278 nM | 268 nM |  | 
12 | COc1cc(-c2nc(-c3ccccc3)c(-c3ccccc3)[nH]2)cc(OC)c1O [MMV020750] | 1.47 µM | 0.678 µM | 0.773 µM |  | 342 nM | 0.663 µM | > 5 µM | > 15 | > 1 | 919 nM | 927 nM |  | 
13 | CCCCCCCN(Cc1ccc(OC(C)(C)C(=O)OCC)cc1)C(=O)Nc1ccc(Cl)cc1OCC [MMV021735] | 1.78 µM | 0.258 µM | 1.29 µM |  | 383 nM | 1.08 µM | > 50 µM | > 130 | > 18 | 269 nM | 223 nM |  | 
